Experimental data reported in US20260355318A1, “MOLECULAR MACHINES FOR TREATMENT OF CANCER, FUNGAL INFECTIONS, OR BACTERIAL INFECTIONS” (priority 2022, published 2026).
Like-named read-outs stand apart in the source and are kept apart here.

How the values were obtained:
A. baumannii = assay: MIC, A. baumannii; format: cell-based, Acinetobacter baumannii; conditions: for MIC of MM: A. baumannii, 405 nm light; for MIC: Acinetobacter baumannii, read-out: MIC of MM
Procedure, shortened: (§1)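 Cell suspensions were exposed to compound at 0.3125-40 μM for 30 min in the dark, with agitation, at 30 or 37 °C depending on strain. Each sample was then irradiated with 405 nm light at 146 mW cm^−2 for 5 min (43.8 J cm^−2), inoculated into MHB and incubated overnight. MIC was read as the lowest concentration without visible growth, alongside non-irradiated controls.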

P. aeruginosa [1] = assay: MIC, P. aeruginosa; format: cell-based, Pseudomonas aeruginosa; conditions: Pseudomonas aeruginosa, read-out: MIC of MM
Experimental: (§2) The appropriate volume of an MM stock at 8 mM necessary to achieve a concentration ranging from 0.3125 to 40 μM was pipetted into a 2 mL microcentrifuge tube to which 1 mL of cell suspension prepared as previously described was added. Corresponding negative controls (DMSO only) were prepared in the same way. The mixture was gently mixed by pipetting and incubated in the dark at 30 or 37 ° C, depending on the strain, for 30 min with agitation (220 rpm). Afterward, MM- or DMSO-treated cells were dispensed in one well of a 24-well plate positioned in the center of the light beam (405 nm LED Light, Prizmatix, UHP—F-5-405) placed at the appropriate distance necessary to achieve the desired light intensity of 304 mW cm-2, 146 mW cm2 or 87 mW cm2, as measured with a handheld digital power meter console coupled to an S415C thermal power sensor head (Thorlabs, Newton, MA, USA). The temperature during irradiation was monitored using a thermocouple probe (Model SC-TT-K-30-36-PP; Omega Engineering, Inc., Stanford, CT, USA). Samples were agitated during irradiation. Dark controls were prepared as previously described except that no irradiation was provided.
For MIC determination, samples treated with a range of concentrations of the different MM, as described above and were irradiated one at a time for 5 min at 146 mW cm^−2 (43.8 J cm^−2), after which irradiated aliquots were collected and inoculated into 1 mL MHB in a 2 mL microcentrifuge tube. Samples were incubated overnight at 30 or 37 ° C, depending on the strain, without agitation. Corresponding non-irradiated samples and negative controls (without bacteria) were also included. The following day, cultures were inspected for growth and the MIC was identified. The experimental procedure used to determine the MIC of visible light-activated MMs is schematically depicted in FIG. 26.

S. aureus = assay: MIC, S. aureus; format: cell-based, Staphylococcus aureus; conditions: for MIC of MM: S. aureus; for MIC: Staphylococcus aureus, read-out: MIC of MM
Procedure, shortened: as §1

S. epidermidis = assay: MIC, S. epidermidis; format: cell-based; conditions: Staphylococcus epidermidis, read-out: MIC of MM
Experimental: as §2, with “provided. […]” for “provided.”

B. cepacia = assay: MIC, B. cepacia; format: cell-based; conditions: Burkholderia cepacia, read-out: MIC of MM
Experimental: as §2, with “provided. […]” for “provided.”

B. cereus = assay: MIC, B. cereus; format: cell-based; conditions: Bacillus cereus, read-out: MIC of MM
Experimental: as §2, with “provided. […]” for “provided.”

[2] = test system: Gram-negative and Gram-positive strains; assay: MIC comparison Gram-positive versus Gram-negative strains (incl. MRSA); format: cell-based; conditions: FIG. 33C
Source text: The dotted line denotes the limit of detection of the method. Results are the means of at least 3 biological replicas #standard error of the mean. (FIG. 33B) MIC value of MM 1, MM 5, MM 6 in different Gram-negative and Gram-positive strains, including MRSA. Bars represent the results from at least 3 biological replicas. Unless otherwise noted, results for MM and DMSO are always reported in the presence of light. (FIG. 33C) Box and whiskers plot (median values with min/max range) of the MIC values of MM 1, MM 5, and MM 6 among the Gram-negative and Gram-positive strains examined in this study. * P<0.05; ns, not significant.
The appropriate volume of an MM stock at 8 mM necessary to achieve a concentration ranging from 0.3125 to 40 μM was pipetted into a 2 mL microcentrifuge tube to which 1 mL of cell suspension prepared as previously described was added. Corresponding negative controls (DMSO only) were prepared in the same way. […] Afterward, MM- or DMSO-treated cells were dispensed in one well of a 24-well plate positioned in the center of the light beam (405 nm LED Light, Prizmatix, UHP—F-5-405) placed at the appropriate distance necessary to achieve the desired light intensity of 304 mW cm-2, 146 mW cm2 or 87 mW cm2, as measured with a handheld digital power meter console coupled to an S415C thermal power sensor head (Thorlabs, Newton, MA, USA). […]

E. coli [3] = assay: Time-kill / light-dose experiments, E. coli; format: cell-based, Escherichia coli; conditions: E. coli; for light dose for complete eradication: highest concentration of MM (5 μM), 405 nm
Experimental: (§3) Serial dilutions of irradiated cell suspensions were prepared in PBS. A volume of 10 AL of the appropriate serial dilutions was spot-plated onto LB agar plates. Following overnight incubation at 30 or 37 ° C, depending on the strain, bacterial viability was assessed as colony forming units (CFU) per mL. Results were expressed as log (N/NO) whereby N is the CFU mL^−1 at each irradiation time point and NO is the initial CFU mL^−1 of the corresponding sample. Only dilutions that yielded 10-100 colonies were counted.

P. aeruginosa [4] = assay: Time-kill / light-dose experiments, P. aeruginosa; format: cell-based, Pseudomonas aeruginosa; conditions: for light dose for complete eradication: 0.625 to 5 μM of MM, 405 nm; for time to reduce cell number to limit of detection: 2×MIC, 146 mW cm^−2 405 nm
Experimental: as §3

[5] = test system: A. baumannii, E. coli, P. aeruginosa, S. aureus; assay: Resistance development / cross-resistance in bacteria (serial passaging); format: cell-based
Experimental: Isolation of MM-resistant mutants of E. coli, A. baumannii, P. aeruginosa, and S. aureus was attempted by irradiating cell suspensions treated with 4×MIC of the different MMs for 5 min at 146 mW cm^−2 (43.8 J cm^−2). No visible colonies could be obtained for any of the strains tested.
For resistance development by sequential passaging (Ling et al., 2015), A. baumannii, E. coli, P. aeruginosa, and S. aureus cells in exponential phase were collected and processed as described for MIC determination. Cells were incubated at 37 ° C for 24 h after which they were inspected for growth. Cells able to grow at 0.5×MIC were collected and re-challenged with a range of MM concentrations and then irradiated. The antibiotics ciprofloxacin and gentamicin (for Gram-negatives) or ciprofloxacin and tobramycin (for S. aureus) were used as controls.

E. coli [6] = assay: Tetracycline uptake; format: cell-based, Escherichia coli; conditions: 0.5×MIC MM pre-treatment, vs DMSO
Experimental: The ability of pre-treatment with subinhibitory concentrations of MMs to potentiate antibiotic killing was further evaluated by monitoring the fluorescence of tetracycline uptake. […] Irradiated cell suspensions were then collected, and tetracycline (128 μg mL^−1 final concentration) was added. A volume of 100 μL per well of tetracycline amended cell suspension was transferred to a black 96-well plate and fluorescence was read every 5 min for 60 min at room temperature in a microplate reader (Ex: 405 nm, Em: 535 nm) (BioTek Instruments Inc, Winooski, VT, USA). Results were expressed as RFU corrected for fluorescence in the absence of cells.

[7] = test system: normal human dermal fibroblasts (NHDFs); assay: Toxicity to NHDF (CellTiter-Glo); format: cell-based; conditions: 5 min, 405 nm light 146 mW cm^−2, 5 min, read-out: IC50 (NHDF viability)
Experimental: Biocompatibility of MM with primary NHDF and HEK293T cells was assessed using the CellTiter-Glo® Luminescent Cell Viability Assay (Promega), per the manufacturer's instructions. The MM concentrations that reduced cell viability by 50% (IC50) were identified and the therapeutic index was calculated as the ratio between the IC50 and the MIC at a light intensity of 146 mW cm^−2.

[8] = Escherichia coli, read-out: MIC of MM in antibiotic-resistant E. coli
[9] = Staphylococcus aureus, S. aureus Gentamycin^R, one line per passage 1-20, read-out: MIC of MM in antibiotic-resistant S. aureus

## C[C@@H]1Cc2ccc3ccccc3c2/C1=C1\c2ccccc2Sc2cc(NCCN(C)C)ccc21 [MM 1, N^1N^1-dimethyl-N^2-(9-(2-methyl-2,3-dihydro-1H-cyclopenta[a]naphthalen-1-ylidene)-9H-thioxanthen-3-yl) ethane-1,2-diamine]
A. baumannii
  MIC of MM: 2.5 µM
  MIC: 2.5 µM
P. aeruginosa [1]
  MIC: 0.625 µM
S. aureus; 405 nm light
  MIC of MM: 0.156 µM
S. aureus
  MIC: 0.156 µM
S. epidermidis
  MIC: 0.078 µM
B. cepacia
  MIC: 10 µM
B. cereus
  MIC: 10 µM
[2]
  median MIC in Gram-positive versus Gram-negative bacteria: significant differences in the MIC between the two bacterial groups were not observed
E. coli [3]
  light dose for complete eradication: at least 40 J cm^−2
P. aeruginosa [4]
  light dose for complete eradication: 16 J cm^−2
  time to reduce cell number to limit of detection: 3 min
[5]; [8]
  MIC: 4 µM
[5]; [9]
  MIC: 0.125 µM
E. coli [6]
  intracellular tetracycline fluorescence: substantial increase in intracellular tetracycline fluorescence
[7]
  IC50: 5 µM

## C[C@@H]1Cc2ccc3ccccc3c2/C1=C1\c2ccccc2Sc2cc(NCCN)ccc21 (racemic) [MM 6, N^1-(9-(2-methyl-2,3-dihydro-1H-cyclopenta[a]naphthalen-1-ylidene)-9H-thioxanthen-3-yl)ethane-1,2-diamine]
A. baumannii
  MIC of MM: 2.5 µM
  MIC: 2.5 µM
P. aeruginosa [1]
  MIC: 0.625 µM
S. aureus; Table 9, 405 nm light 43.8 J cm^−2
  MIC of MM: 0.078
S. aureus
  MIC: 0.078 µM
S. epidermidis
  MIC: 0.078 µM
B. cepacia
  MIC: 10 µM
B. cereus
  MIC: 10 µM
[2]
  median MIC in Gram-positive versus Gram-negative bacteria: significant differences in the MIC between the two bacterial groups were not observed
E. coli [3]; 2×MIC, 146 mW cm^−2 405 nm
  time to reduce cell number to limit of detection: 4 min
E. coli [3]
  light dose for complete eradication: at least 40 J cm^−2
P. aeruginosa [4]
  light dose for complete eradication: 16 J cm^−2
  time to reduce cell number to limit of detection: 10 min
[5]; [8]
  MIC: 0.5 µM
[5]; [9]
  MIC: 0.125 µM
E. coli [6]
  intracellular tetracycline fluorescence: substantial increase in intracellular tetracycline fluorescence
[7]
  IC50: 10 µM
